# Experimental data as given in US20080031839A1, “Agent For Prermanent Hair Processing” (Showa Denko K.K., priority 2004, published 2008).
# Structures can show the parent of a compound that is named as a salt.
# Assay: Permanent wave processing of hair, wave efficiency by Kilby method
# Settings: for Wave efficiency: compound at 2% in terms of reducing power of thioglycolic acid, soaked at 35° C. for 20 minutes, bromate second liquid 25° C. 10 minutes
# Experimental: A permanent wave first liquid was prepared as described below using the alkoxyalkyl mercaptocarboxylate (TGE-1) obtained in Synthetic Example 1. A permanent wave second liquid was prepared as described below. Hair was permanent waved with these liquids, and the wave efficiency was obtained.
# […] The mixing was performed such that the total amount would be 100 g. A permanent wave first liquid was thus prepared.
# The agent contained TGE-1 in an amount of 2% in terms of reducing power of thioglycolic acid.
# 5 g of sodium bromate and 95 g of purified water were mixed together to give a permanent wave second liquid.
# The wave efficiency was evaluated by a Kilby method as described in Fragrance Journal Extra Edition (1984, No. 5, P. 442). A liquid containing cysteamine hydrochloride was used as the comparative agent.
# Chinese hair (approximately 20 cm long) was fixed to a Kilby apparatus and was soaked in the permanent wave first liquid heated to 35° C. over a period of 20 minutes. Thereafter, the hair was lightly towel dried such that the first liquid would not drip. The hair was then given the bromate-based permanent wave second liquid, and was allowed to stand at 25° C. for 10 minutes. After the completion of the treatment with the second liquid, the hair was rinsed with running water and was removed from the Kilby apparatus, followed by drying. The dried hair was measured and the wave efficiency was determined from the following equation. Wave efficiency(%)=100−[100×(B−A)]÷(C−A) wherein:
# A: Distance between the first and sixth rods of the Kilby apparatus (actual measurement value between the central points of the rods)
# B: Length of six waves of curled hair
# C: Length of straightened six waves of curled hair
# A permanent wave first liquid was prepared as described in Example 1, except that TGE-1 was replaced with the alkoxyalkyl mercaptocarboxylate indicated in Table 1. The permanent wave first liquid contained the alkoxyalkyl mercaptocarboxylate in an amount of 2% in terms of reducing power of thioglycolic acid.
# Hair was permanent waved and the wave efficiency was obtained by the procedure of Example 1 with use of the permanent wave first liquid prepared as above and the permanent wave second liquid used in Example 1.
# A permanent wave first liquid was prepared as described in Example 1, except that TGE-1 was replaced with the cysteamine hydrochloride indicated in Table 1. The permanent wave first liquid contained the […] in an amount of 2% in terms of reducing power of thioglycolic acid.
Molecule,Wave efficiency (pH 6 first liquid) [%],Wave efficiency (pH 7.5 first liquid) [%],Wave efficiency (pH 9 first liquid) [%],"Behaviour of wave efficiency across pH range (neutral to acidic versus alkaline pH, summary of Table 1)"
2-butoxyethyl thiolactate [TNE-3],73,73,72,–
"NCCS [Cysteamine hydrochloride, cysteamine hydrochloride, reference compound]",52,65,73,drastic deterioration of wave efficiency with the pH lowering to a neutral to acidic region
"CCOCCOC(=O)CS [TGE-2, 2-ethoxyethyl thioglycolate]",84,87,86,–
"CCCCOCCOC(=O)CS [TGE-3, 2-butoxyethyl thioglycolate]",79,79,82,–
"CCOCCOCCOC(=O)CS [TGE-5, 5-ethoxy-3-oxapentyl thioglycolate]",70,70,71,–
"COCCOCCOCCOC(=O)CS [TGE-6, 8-methoxy-3,6-dioxaoctyl thioglycolate]",63,67,65,–
"COCC(C)OC(=O)CS (stereo not shown) [TGE-7, 2-methoxy-1-methylethyl thioglycolate]",79,81,81,–
"CCOCC(C)OC(=O)CS (stereo not shown) [TGE-8, 2-ethoxy-1-methylethyl thioglycolate]",80,82,83,–
"COCCOCCOCCOC(=O)CS [TGE-9, 8-methoxy-3,6-dioxaoctyl thioglycolate]",75,75,76,–
